In patent US20260137706A1, “METHODS OF TREATING INFLAMMATORY DISEASES” (INTERLINE THERAPEUTICS, INC., priority 2023, published 2026):
Read-outs that look alike come from different tables or passages of the source.

Key:
[1] = target: T1, binding of His-XIAP(BIR2)-avi fusion protein to GST-RIPK2 fusion protein (RIPK2/XIAP) (Homo sapiens, UniProt O43353); assay: RIPK2-XIAP binding competition PPI assay (TR-FRET); settings: for IC50: read-out: PPI IC50 bin; for Emax: read-out: PPI Amax bin
T1 construct: made in house; host or cells: baculovirus infected Sf9 cells
T1 sequence (O43353 1-310 limits assumed): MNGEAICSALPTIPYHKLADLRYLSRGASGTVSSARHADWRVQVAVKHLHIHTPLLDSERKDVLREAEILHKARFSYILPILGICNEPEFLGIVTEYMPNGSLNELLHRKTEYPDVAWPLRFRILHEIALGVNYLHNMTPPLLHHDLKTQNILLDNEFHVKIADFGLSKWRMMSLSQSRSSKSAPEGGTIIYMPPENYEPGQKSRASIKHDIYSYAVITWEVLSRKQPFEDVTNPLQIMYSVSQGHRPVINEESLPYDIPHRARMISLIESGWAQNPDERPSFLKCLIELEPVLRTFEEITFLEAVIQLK
Summary of the method: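 Compounds (in DMSO, 100-fold stock) incubated 120 min at 23 °C with 1 nM GST-RIPK2 (aa 1-310) and 25 nM His-XIAP(BIR2 aa 152-231)-avi, plus anti-His-XL665 and anti-GST-Tb, in pH 7.5 Tris buffer. Read-out: 665/520 nm emission ratio. Normalized to no-inhibitor (0%) and 50 nM GSK583 (−100%); Amax binned A–D.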

[2] = tested on: NF-κB pathway (SEAP) in THP1-Dual cells; assay: THP-1 Dual cell SEAP assay (L18-MDP stimulated); assay type: cell-based; settings: Homo sapiens, THP1-Dual, read-out: NF-κB THP1 IC50 bin
Summary of the method: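 IC50 values derive from non-linear regression of % inhibition, calculated against DMSO/L18-MDP-treated wells after media-only subtraction. NF-κB SEAP activity was read at OD 620-655 nm (QUANTI-Blue, 2 h, 37 °C) from supernatants of THP1-Dual cells. Cells had been compound-treated 30 min before overnight (20-24 h) stimulation with 10 ng/mL final L18-MDP.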

[3] = target: T2, GST-RIPK2 fusion protein (human RIPK2, amino acids 1-310) (Homo sapiens, UniProt O43353); assay: RIPK2 binding competition assay (TR-FRET, Tracer 199 displacement); settings: 10 nM Tracer 199, 1 nM GST-RIPK2, read-out: RIPK2 IC50
T2 construct: made in house; host or cells: baculovirus infected Sf9 cells
T2 sequence (O43353 1-310): as the sequence (O43353 1-310 limits assumed) above
Description: The ability of selected compounds of Formula (I) to inhibit the binding of an Alexa647-labelled ATP-competitive kinase inhibitor to a GST-RIPK2 fusion protein was quantified employing the TR-FRET-based RIPK2 binding competition assay as described in the following paragraphs.
Recombinant fusion protein of N-terminal Glutathione-S-Transferase (GST) and a fragment of human RIPK2 (amino acids 1-310 of accession number 043353), expressed in baculovirus infected Sf9 cells, purified via glutathione affinity chromatography, was used as GST-RIPK2 fusion protein. Tracer 199 from Life Technologies (catalogue no. PR9115B) was used as Alexa647-labelled ATP-competitive kinase inhibitor.
For the assay, 50 nL of a 100-fold concentrated solution of each test compound in DMSO was pipetted into either a black low volume 384-well microtiter plate or a black 1536-well microtiter plate (both Greiner Bio-One, Frickenhausen, Germany), 3 μL solution of Tracer 199 (16.7 nM=>final concentration in 5 μL assay volume is 10 nM) in aqueous assay buffer (25 mM Tris/HCl pH 7.5, 10 mM magnesium chloride (MgCl2), 5 mM β-glycerophosphate, 2.5 mM dithiothreitol (DTT), 0.5 mM ethylene glycol-bis(2-aminoethylether)-N,N,N′,N′-tetraacetic acid (EGTA), 0.5 mM sodium ortho-vanadate, 0.01% (w/v) bovine serum albumin (BSA), 0.005% (w/v) Pluronic F-127 (Sigma)) were added. Then the binding competition was started by the addition of 2 μL of a solution of the GST-RIPK2 fusion protein (2.5 nM=>final conc. in the 5 μL assay volume is 1 nM) and of Anti-GST-Tb (1.25 nM=>final conc. in the 5 μL assay volume is 0.5 nM), a Lumi4®—Tb cryptate-conjugated anti-GST antibody from PerkinElmer (catalogue no 61GSTTAH), in assay buffer.
The resulting mixture was incubated 45 min at 22° C. to allow the formation of a complex between the Tracer 199, the fusion protein and Anti-GST-Tb. Subsequently, the amount of this complex was evaluated by measurement of the resonance energy transfer from the Tb-cryptate to the Tracer 199. Therefore, the fluorescence emissions at 620 nm and 665 nm after excitation at 337 nm were measured in a TR-FRET reader, e.g. a Pherastar FS (BMG Labtechnologies, Offenburg, Germany) or a Viewlux (PerkinElmer). The ratio of the emissions at 665 nm and at 620 nm was taken as the measure of the amount of the complex. The data were normalized (assay reaction without inhibitor=0% activity, all other assay components but no GST-RIPK2 fusion protein=−100% activity).
Table A1 below lists IC50 values of selected compounds of Formula (I) measured in the RIPK2 binding competition assay.

[4] = RIPK2/XIAP binding competition PPI assay
[5] = RIPK2/XIAP binding competition PPI assay, Amax

SMILES	IC50 [1, 4]	Emax [1]	IC50 [2]	IC50 [3]	Emax [1, 5]
COc1cc2ncc(-c3cc4cn[nH]c4cn3)n2cc1S(=O)(=O)C(C)(C)C [Example 11, 5-(6-(tert-butylsulfonyl)-7-methoxyimidazo[1,2-a]pyridin-3-yl)-1H-pyrazolo[3,4-c]pyridine]	> 20 nM	< 30%	< 50 nM	2.5 to 20 nM	–
CC(C)(C)S(=O)(=O)c1cn2c(-c3cc(F)c(N)nc3F)cnc2cc1OCCO [Example 12, 2-((3-(6-amino-2,5-difluoropyridin-3-yl)-6-(tert-butylsulfonyl)imidazo[1,2-a]pyridin-7-yl)oxy)ethan-1-ol]	2.5 to 20 nM	> 80%	50 to 250 nM	2.5 to 20 nM	–
CC(C)(C)S(=O)(=O)c1cn2c(-c3cc(Cl)c(N)nc3F)cnc2cc1OCCO [Example 13, 2-((3-(6-amino-5-chloro-2-fluoropyridin-3-yl)-6-(tert-butylsulfonyl)imidazo[1,2-a]pyridin-7-yl)oxy)ethan-1-ol]	1 to 2.5 nM	–	50 to 250 nM	1 to 2.5 nM	> 80%
CC(C)(C)S(=O)(=O)c1cc2c(-c3cc(F)c(N)nc3F)cnn2cc1OCCO [Example 14, 2-((3-(6-amino-2,5-difluoropyridin-3-yl)-5-(tert-butylsulfonyl)pyrazolo[1,5-a]pyridin-6-yl)oxy)ethan-1-ol]	1 to 2.5 nM	–	50 to 250 nM	1 to 2.5 nM	> 80%
CC(C)(C)S(=O)(=O)c1cc2c(-c3cc(Cl)c(N)nc3F)cnn2cc1OCCO [Example 15, 2-((3-(6-amino-5-chloro-2-fluoropyridin-3-yl)-5-(tert-butylsulfonyl)pyrazolo[1,5-a]pyridin-6-yl)oxy)ethan-1-ol]	1 to 2.5 nM	–	50 to 250 nM	1 to 2.5 nM	> 80%
COCCOc1cc2ncc(-c3cc(F)c(N)nc3F)n2cc1S(=O)(=O)C(C)(C)C [Example 16, 5-(6-(tert-butylsulfonyl)-7-(2-methoxyethoxy)imidazo[1,2-a]pyridin-3-yl)-3,6-difluoropyridin-2-amine]	2.5 to 20 nM	–	250 to 1000 nM	2.5 to 20 nM	> 80%
CC(C)(C)S(=O)(=O)c1cn2c(-c3cc(F)c(N)nc3F)cnc2cc1OCCCO [Example 17, 3-((3-(6-amino-2,5-difluoropyridin-3-yl)-6-(tert-butylsulfonyl)imidazo[1,2-a]pyridin-7-yl)oxy)propan-1-ol]	1 to 2.5 nM	–	50 to 250 nM	1 to 2.5 nM	> 80%
CC(C)(C)S(=O)(=O)c1cn2c(-c3cc(F)c(N)nc3F)cnc2cc1OCCN1CCOCC1 [Example 18, 5-(6-(tert-butylsulfonyl)-7-(2-morpholinoethoxy)imidazo[1,2-a]pyridin-3-yl)-3,6-difluoropyridin-2-amine]	2.5 to 20 nM	–	250 to 1000 nM	2.5 to 20 nM	> 80%
CN1CCN(CCOc2cc3ncc(-c4cc(F)c(N)nc4F)n3cc2S(=O)(=O)C(C)(C)C)CC1 [Example 19, 5-(6-(tert-butylsulfonyl)-7-(2-(4-methylpiperazin-1-yl)ethoxy)imidazo[1,2-a]pyridin-3-yl)-3,6-difluoropyridin-2-amine]	2.5 to 20 nM	–	250 to 1000 nM	2.5 to 20 nM	> 80%
CN(C)CCOc1cc2ncc(-c3cc(F)c(N)nc3F)n2cc1S(=O)(=O)C(C)(C)C [Example 20, 5-(6-(tert-butylsulfonyl)-7-(2-(dimethylamino)ethoxy)imidazo[1,2-a]pyridin-3-yl)-3,6-difluoropyridin-2-amine]	> 20 nM	–	> 1000 nM	2.5 to 20 nM	> 80%
CC(C)(C)S(=O)(=O)c1cn2c(-c3cc(F)c(N)nc3F)cnc2cc1OCCN1CCNCC1 [Example 21, 5-(6-(tert-butylsulfonyl)-7-(2-(piperazin-1-yl)ethoxy)imidazo[1,2-a]pyridin-3-yl)-3,6-difluoropyridin-2-amine]	2.5 to 20 nM	–	> 1000 nM	1 to 2.5 nM	> 80%
Cn1cc(-c2cc3ncc(-c4cc(F)c(N)nc4F)n3cc2S(=O)(=O)C(C)(C)C)cn1 [Example 22, 5-(6-(tert-butylsulfonyl)-7-(1-methyl-1H-pyrazol-4-yl)imidazo[1,2-a]pyridin-3-yl)-3,6-difluoropyridin-2-amine]	2.5 to 20 nM	–	250 to 1000 nM	2.5 to 20 nM	> 80%
COCCn1cc(-c2cc3ncc(-c4cc(F)c(N)nc4F)n3cc2S(=O)(=O)C(C)(C)C)cn1 [Example 23, 5-(6-(tert-butylsulfonyl)-7-(1-(2-methoxyethyl)-1H-pyrazol-4-yl)imidazo[1,2-a]pyridin-3-yl)-3,6-difluoropyridin-2-amine]	2.5 to 20 nM	–	250 to 1000 nM	2.5 to 20 nM	> 80%
CC(C)(C)S(=O)(=O)c1cn2c(-c3cc(F)c(N)nc3F)cnc2cc1OCCn1cccn1 [Example 24, 5-(7-(2-(1H-pyrazol-1-yl)ethoxy)-6-(tert-butylsulfonyl)imidazo[1,2-a]pyridin-3-yl)-3,6-difluoropyridin-2-amine]	2.5 to 20 nM	–	50 to 250 nM	2.5 to 20 nM	> 80%
Cn1ccc(COc2cc3ncc(-c4cc(F)c(N)nc4F)n3cc2S(=O)(=O)C(C)(C)C)n1 [Example 25, 5-(6-(tert-butylsulfonyl)-7-((1-methyl-1H-pyrazol-3-yl)methoxy)imidazo[1,2-a]pyridin-3-yl)-3,6-difluoropyridin-2-amine]	2.5 to 20 nM	–	250 to 1000 nM	2.5 to 20 nM	> 80%
CC1(COc2cc3ncc(-c4cc(F)c(N)nc4F)n3cc2S(=O)(=O)C(C)(C)C)COC1 [Example 26, 5-(6-(tert-butylsulfonyl)-7-((3-methyloxetan-3-yl)methoxy)imidazo[1,2-a]pyridin-3-yl)-3,6-difluoropyridin-2-amine]	2.5 to 20 nM	–	50 to 250 nM	1 to 2.5 nM	> 80%
Cn1ccc(-c2cc3ncc(-c4cc(F)c(N)nc4F)n3cc2S(=O)(=O)C(C)(C)C)n1 [Example 27, 5-(6-(tert-butylsulfonyl)-7-(1-methyl-1H-pyrazol-3-yl)imidazo[1,2-a]pyridin-3-yl)-3,6-difluoropyridin-2-amine]	> 20 nM	–	> 1000 nM	> 20 nM	> 80%
CC(C)(O)COc1cc2ncc(-c3cc(F)c(N)nc3F)n2cc1S(=O)(=O)C(C)(C)C [Example 28, 1-((3-(6-amino-2,5-difluoropyridin-3-yl)-6-(tert-butylsulfonyl)imidazo[1,2-a]pyridin-7-yl)oxy)-2-methylpropan-2-ol]	2.5 to 20 nM	–	50 to 250 nM	1 to 2.5 nM	> 80%
CC(C)(C)S(=O)(=O)c1cn2c(-c3cc(F)c(N)nc3F)cnc2cc1OCCN1CCOC1=O [Example 29, 3-(2-((3-(6-amino-2,5-difluoropyridin-3-yl)-6-(tert-butylsulfonyl)imidazo[1,2-a]pyridin-7-yl)oxy)ethyl)oxazolidin-2-one]	2.5 to 20 nM	–	250 to 1000 nM	2.5 to 20 nM	> 80%
